Test results reported in US11904025B2, “Cyclophanes for live-cell imaging” (Northwestern University, priority 2018, dated 2024).
“Also recorded” adds a separate entry of the source. One block for each compound: values may come before it.

Key:
RAW 264.7 cells = assay: MTT assay, cell viability after 24 h incubation; conditions: for cell viability: RAW 264.7 cells, 100 μM loading concentration, 24 h incubation
Method: Cell culture: Murine macrophages (RAW 264.7 cells) that were obtained from the American Type Culture Collection (ATCC, Rockville, MD, USA) were utilized for cell culture experiments.
After 24 h incubation, each well was added with MTT (5 mg/ml in PBS, 10 μL) and then incubated for 4 h. The media from each well was pipetted out, formazan crystals deposited on the plate were dissolved in 200 μL of dimethyl sulfoxide and the absorbance of each well was measured using a microplate reader at 560 nm.
All the samples were analyzed in quadruplicates. The percentage cell viability was then calculated using the formula: % cell viability=(OD of treated sample/OD of the untreated sample)*100.

Solubility = conditions: H2O
RAW 264.7 macrophages [1] = assay: Live cell confocal microscopy; format: cell-based, Murine; conditions: for fluorescence inside cells after incubation: RAW 264.7 cells, 4 h incubation (6·4Cl 20 μM in PBS); for photobleaching inside cells under imaging conditions: blue laser excitation
Method: RAW 264.7 macrophages (1×10^5 cells/mL, 475 μL) were plated in each well of a 4 well p-slide (ibidi cell focus) and cultured overnight. […] After incubation, cells were washed with phenol free DMEM and stained with LysoTracker green (lysosome stain) or SYTO nuclei (nuclear stain) at 1:10,000 dilutions. Controls used were cells added with only stains, cells only and cells with materials only. Plated cells were imaged within a humidified chamber using a 100× oil-immersion objective on an SP5 Leica Confocal Microscope using HyD detectors and lasers: 405 nm diode laser for material, 561 nm HeNe laser for Lysotracker green, and 633 nm HeNe laser for SYTO 61.

[2] = Absolute fluorescence quantum yield; format: physicochemical; conditions: in H2O
Method: (§1) UV/Vis Absorption spectra were recorded using a UV-3600 Shimadzu spectrophotometer. Steady-state emission spectra were acquired using HORIBA Nanolog spectrofluorimeter equipped with an integrating sphere for absolute photoluminescence quantum yield determination and time-correlated single-photon counting (TCSPC) module for emission decays of 4·2Cl in H2O. The time-resolved fluorescence (TRF) measurement of 6·4Cl in H2O was carried out with a streak camera system (Hamamatsu C4334 Streakscope).

RAW 264.7 macrophages [3] = assay: Phototoxicity studies (irradiation, then Calcein AM viability); format: cell-based, Murine; conditions: RAW 264.7 cells, different concentrations, light 410 nm, 25 mW, 15 min
Method: After 24 h incubation, wells were washed with PBS, added with 100 μL of DMEM and immediately irradiated with visible light using Max-303 Xenon Light Source (410 nm, Asahi Spectra) at a light intensity of […] for 15 min. Following irradiation cells were incubated overnight and viability was measured using Calcein AM as described above.

[4] = Fluorescence at different pH and in serum; format: physicochemical
Method: as §1

RAW 264.7 macrophages [5] = assay: Calcein AM cell viability assay; format: cell-based, Murine; conditions: RAW 264.7 cells, 24 h incubation, 1.56-100 μM
Method: After 24 h of incubation, cells were washed twice with PBS, added with Calcein AM (1 μM, 100 μL in PBS) to each well and then incubated for 1 h in the dark. […] The measured fluorescence intensity (FI) is proportional to the number of viable cells.

[6] = UV light photobleaching / photostability in solution; format: physicochemical
Method: Samples were irradiated with a 18 W LED UV flashlight (395 nm, Hinmay super bright LED). They were immersed in a 23±1° C. water bath during irradiation periods. (FIG. 5A-5B)

Compound: C[n+]1ccc(-c2ccc(-c3cc[n+](C)cc3)cc2)cc1 [2·2Cl, Me2ExBIPY·2Cl]
- cell viability (RAW 264.7 cells): 68%

Compound: C[n+]1ccc(-c2nc3sc(-c4cc[n+](C)cc4)nc3s2)cc1 [4·2Cl, 4,4′-(Thiazolo[5,4-d]thiazole-2,5-diyl)bis(1-methylpyridinium), reference compound]
- cell viability (RAW 264.7 cells): ~75%
- water solubility (Solubility): Water soluble
- fluorescence inside cells after incubation (RAW 264.7 macrophages [1]): only a little fluorescence
- fluorescence inside cells after incubation (RAW 264.7 macrophages [1]; listed as Me2TzBIPY·2Cl): very little fluorescence
- photobleaching inside cells under imaging conditions (RAW 264.7 macrophages [1]; RAW 264.7 macrophages): quenched completely
- time until fluorescence inside the cells is quenched (RAW 264.7 macrophages [1]; laser irradiation under imaging conditions): ≤ 3 s
- fluorescence quantum yield ΦF [2]: 0.95

- fluorescence in serum compared with water ([4]; 10% Fetal bovine serum): slightly lower fluorescence intensity
- change of fluorescence characteristics with pH ([4]; pH=1 to 7): without any change
- water solubility (Solubility): highly water-soluble
- fluorescence quantum yield ΦF [2]: 1.00
- fluorescence quantum yield ΦF ([2]; listed as 6^4+): unity
- photostability in H2O ([6]; H2O, several months under natural daylight): extremely photostable
- loss of absorbance intensity on UV irradiation (photobleaching) ([6]; UV flashlight 18 W, 395 nm, 60 min): a little loss of absorbance intensity
Compound: c1cc2ccc1C[n+]1ccc(cc1)-c1ccc(cc1)-c1cc[n+](cc1)Cc1ccc(cc1)C[n+]1ccc(cc1)-c1nc3sc(nc3s1)-c1cc[n+](cc1)C2 [6·4Cl, ExTz·4Cl]
- phototoxicity (RAW 264.7 macrophages [3]): no phototoxicity
- cytotoxicity (in words) (RAW 264.7 cells; RAW 264.7 macrophages, loading concentration as high as 100 μM): non-cytotoxic; also recorded: less cytotoxic
- cell viability by Calcein AM versus MTT result (RAW 264.7 macrophages [5]): confirmed
- fluorescence inside cells after incubation (RAW 264.7 macrophages [1]): brilliant blue emission
- photobleaching inside cells under imaging conditions (RAW 264.7 macrophages [1]; RAW 264.7 macrophages): without any hint of photobleaching
- cellular uptake (RAW 264.7 macrophages [1]; RAW 264.7 macrophages, confocal microscopy, listed as 6^4+): efficiently taken up
- fluorescence brightness inside the cells relative to reference 4^2+ (RAW 264.7 macrophages [1]; live cells): six times brighter
- cellular localization (RAW 264.7 macrophages [1]; living macrophages, co-incubation with LysoTracker green): enters the lysosomes

Compound: c1cc2ccc1C[n+]1ccc(cc1)-c1cc[n+](cc1)Cc1ccc(cc1)C[n+]1ccc(cc1)-c1cc[n+](cc1)C2 [BlueBox, BlueBox·4Cl]
- cell viability (RAW 264.7 cells): over 96%

Compound: C[n+]1ccc(-c2cc[n+](C)cc2)cc1 [paraquat, dimethyl viologen]
- cell viability (RAW 264.7 cells): ~63%
